# Literature values as cited in patent publication US20260034185A1, “POLYPODYIUM LEUCOTOMOS AND LARIX DECIDUA FOR USE IN THE PREVENTION OF DAMAGE FROM UVA, UVB, UVC AND/OR IR RAYS” (Unifarco S.p.A., priority 2022, published 2026).
# Biological target: T1, caspase-1 (Homo sapiens, UniProt P29466)
# T1 construct: literature Promega G9951
# T1 sequence (P29466 120-297 limits assumed): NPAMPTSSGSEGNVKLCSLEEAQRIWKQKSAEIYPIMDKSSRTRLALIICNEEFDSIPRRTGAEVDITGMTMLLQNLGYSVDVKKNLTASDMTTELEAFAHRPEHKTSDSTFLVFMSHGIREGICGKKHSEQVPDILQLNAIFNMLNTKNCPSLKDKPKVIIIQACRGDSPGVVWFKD
# T1 sequence (P29466 317-404 limits assumed): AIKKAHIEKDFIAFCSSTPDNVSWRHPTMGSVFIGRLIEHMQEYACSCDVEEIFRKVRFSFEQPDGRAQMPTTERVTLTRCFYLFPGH
# Details: inhibitor included in the Caspase-Glo 1 kit; does not substantially inhibit cross-reactive caspases
substance,measurement,value
Ac-YVAD-CHO,inhibition of caspase-1 activity,99%
